# According to US20260137703A1, “2-AMINO-PYRIDO[2,3-D]PYRIMIDIN-7(8H)-ONE AND 7-AMINO-1-PYRIMIDO[4,5-D]PYRIMIDIN-2(1 H)-ONE DERIVATIVES AS EGFR INHIBITORS FOR THE TREATMENT OF CANCER” (Cancer Research Technology Limited, priority 2022, published 2026):
# Molecular target: CtermHisTag-mEGFR Wild type (Homo sapiens, UniProt P00533)
# Experiment: biochemical
# Chain of CtermHisTag-mEGFR Wild type (P00533 whole entry): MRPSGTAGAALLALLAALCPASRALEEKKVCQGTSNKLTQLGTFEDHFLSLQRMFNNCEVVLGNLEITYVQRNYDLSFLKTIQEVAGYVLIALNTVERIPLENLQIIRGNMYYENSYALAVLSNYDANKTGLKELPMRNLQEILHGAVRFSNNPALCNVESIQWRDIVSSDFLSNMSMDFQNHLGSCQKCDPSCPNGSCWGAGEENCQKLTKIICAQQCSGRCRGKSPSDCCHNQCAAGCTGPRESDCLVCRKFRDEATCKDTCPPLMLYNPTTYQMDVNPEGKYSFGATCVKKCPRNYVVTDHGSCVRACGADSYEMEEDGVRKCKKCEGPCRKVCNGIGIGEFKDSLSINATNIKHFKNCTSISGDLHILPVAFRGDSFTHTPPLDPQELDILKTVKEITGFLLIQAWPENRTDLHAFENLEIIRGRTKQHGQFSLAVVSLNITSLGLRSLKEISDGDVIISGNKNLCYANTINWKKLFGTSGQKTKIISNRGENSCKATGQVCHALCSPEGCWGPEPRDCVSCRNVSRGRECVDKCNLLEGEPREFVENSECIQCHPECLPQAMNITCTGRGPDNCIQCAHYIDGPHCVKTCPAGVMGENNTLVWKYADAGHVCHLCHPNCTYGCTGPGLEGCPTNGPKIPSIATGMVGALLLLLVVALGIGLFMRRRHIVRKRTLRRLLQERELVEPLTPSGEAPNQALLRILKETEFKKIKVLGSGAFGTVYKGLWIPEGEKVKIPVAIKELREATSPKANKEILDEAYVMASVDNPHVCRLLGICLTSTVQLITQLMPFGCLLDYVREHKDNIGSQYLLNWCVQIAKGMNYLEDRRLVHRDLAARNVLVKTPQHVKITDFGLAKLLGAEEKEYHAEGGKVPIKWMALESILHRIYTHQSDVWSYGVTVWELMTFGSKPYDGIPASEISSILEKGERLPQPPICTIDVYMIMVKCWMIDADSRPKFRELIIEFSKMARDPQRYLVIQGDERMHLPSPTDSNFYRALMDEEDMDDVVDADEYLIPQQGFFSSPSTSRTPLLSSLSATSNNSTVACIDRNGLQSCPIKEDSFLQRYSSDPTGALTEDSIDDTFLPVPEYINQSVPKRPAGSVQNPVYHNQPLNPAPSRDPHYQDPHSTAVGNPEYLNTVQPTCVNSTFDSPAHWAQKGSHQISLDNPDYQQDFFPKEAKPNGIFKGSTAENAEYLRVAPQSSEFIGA
row,IC50 [µM],Structure (SMILES)
1,> 10,"C#Cc1cc(=O)n(-c2ccc(OC)cc2OC)c2nc(Nc3ccccc3OC)ncc12 [Example 75, 8-(2,4-Dimethoxyphenyl)-5-ethynyl-2-[(2-methoxyphenyl)amino]pyrido[2,3-d]pyrimidin-7-one]"
2,> 10,"C#Cc1cc(=O)n(C(C)C)c2nc(Nc3ccccc3OC)ncc12 [Example 83, 5-Ethynyl-8-isopropyl-2-[(2-methoxyphenyl)amino]pyrido[2,3-d]pyrimidin-7-one]"
3,> 10,"C#Cc1cc(=O)n(-c2ccc(OC)cc2)c2nc(Nc3ccccc3OC)ncc12 [Example 84, 5-ethynyl-8-(4-methoxyphenyl)-2-[(2-methoxyphenyl)amino]pyrido[2,3-d]pyrimidin-7-one]"
4,1 to 10,"C#Cc1cc(=O)n(-c2cccc(NC(=O)C=C)c2)c2nc(Nc3ccccc3OC)ncc12 [Example 85, N-(3-(5-Ethynyl-2-((2-methoxyphenyl)amino)-7-oxopyrido[2,3-d]pyrimidin-8(7H)-yl)phenyl)acrylamide]"
5,1 to 10,"C#Cc1c(-c2ccccc2)c(=O)n(C)c2nc(Nc3ccc(N(C)CCN(C)C)cc3OC)ncc12 [Example 121, 2-[(4-[[2-(dimethylamino)ethyl](methyl)amino]-2-methoxyphenyl)amino]-5-ethynyl-8-methyl-6-phenylpyrido[2,3-d]pyrimidin-7-one]"
6,< 1,"C#Cc1c(-c2ccccc2Cl)c(=O)n(C)c2nc(Nc3ccc(N(C)CCN(C)C)cc3OC)ncc12 [Example 122, 6-(2-chlorophenyl)-2-[(4-[[2-(dimethylamino)ethyl](methyl)amino]-2-methoxyphenyl)amino]-5-ethynyl-8-methylpyrido[2,3-d]pyrimidin-7-one]"
7,> 10,"C#Cc1c(-c2ccccc2Cl)c(=O)n(C)c2nc(Nc3ccccc3OC)ncc12 [Example 123, 6-(2-chlorophenyl)-5-ethynyl-2-[(2-methoxyphenyl)amino]-8-methylpyrido[2,3-d]pyrimidin-7-one]"
8,> 10,"C#Cc1c(-c2ccccc2Cl)c(=O)n(C)c2nc(Nc3ccccc3)ncc12 [Example 124, 6-(2-chlorophenyl)-5-ethynyl-8-methyl-2-(phenylamino)pyrido[2,3-d]pyrimidin-7-one]"
9,> 10,"C#Cc1c(-c2ccccc2Cl)c(=O)n(C)c2nc(NCCCCN3CCN(C)CC3)ncc12 [Example 130, 6-(2-chlorophenyl)-5-ethynyl-8-methyl-2-{[4-(4-methylpiperazin-1-yl)butyl]amino}pyrido[2,3-d]pyrimidin-7-one]"
10,< 1,"C#Cc1c(-c2ccccc2Cl)c(=O)n(C)c2nc(Nc3ccc(N(C)CCN(C)C)c(C)c3)ncc12 [Example 133, 6-(2-chlorophenyl)-2-[(4-{[2-(dimethylamino)ethyl](methyl)amino}-3-methylphenyl)amino]-5-ethynyl-8-methylpyrido[2,3-d]pyrimidin-7-one]"
11,1 to 10,"C#Cc1c(-c2ccccc2OC)c(=O)n(C)c2nc(Nc3ccc(N(C)CCN(C)C)cc3)ncc12 [Example 138, 2-[(4-{[2-(dimethylamino)ethyl](methyl)amino}phenyl)amino]-5-ethynyl-6-(2-methoxyphenyl)-8-methylpyrido [2,3-d]pyrimidin-7-one]"
12,1 to 10,"C#Cc1c(Cc2ccccc2)c(=O)n(C)c2nc(Nc3ccc(N(C)CCN(C)C)cc3OC)ncc12 [Example 140, 6-benzyl-2-[(4-[[2-(dimethylamino)ethyl](methyl)amino]-2-methoxyphenyl)amino]-5-ethynyl-8-methylpyrido[2,3-d]pyrimidin-7-one]"
13,> 10,"C#Cc1c(C(=O)NC)c(=O)n(-c2ccccc2)c2nc(Nc3ccccc3OC)ncc12 [Example 141, 5-ethynyl-2-[(2-methoxyphenyl)amino]-N-methyl-7-oxo-8-phenylpyrido[2,3-d]pyrimidine-6-carboxamide]"
14,> 10,"C#Cc1c(N)c(=O)n(-c2ccccc2)c2nc(Nc3ccccc3OC)ncc12 [Example 142, 6-amino-5-ethynyl-2-[(2-methoxyphenyl)amino]-8-phenylpyrido[2,3-d]pyrimidin-7-one]"
15,> 10,"C#Cc1c(NC(C)=O)c(=O)n(-c2ccccc2)c2nc(Nc3ccccc3OC)ncc12 [Example 143, N-[5-ethynyl-2-[(2-methoxyphenyl)amino]-7-oxo-8-phenylpyrido[2,3-d]pyrimidin-6-yl]acetamide]"

# More lines, now with the values behind:
row,Structure (SMILES),IC50 [µM]
1,"C=CC(=O)Nc1cc(=O)n(-c2ccccc2)c2nc(Nc3ccccc3OC)ncc12 [Example 2, N-(2-((2-Methoxyphenyl)amino)-7-oxo-8-phenyl-7,8-dihydropyrido[2,3-d]pyrimidin-5-yl)acrylamide]",> 10
2,"C#Cc1nc(=O)n(-c2ccccc2)c2nc(Nc3ccccc3OC)ncc12 [Example 4, 4-Ethynyl-7-[(2-methoxyphenyl)amino]-1-phenylpyrimido[4,5-d][1,3]diazin-2-one]",< 1
3,C#Cc1cc(=O)n(-c2ccccc2)c2nc(Nc3ccccc3)ncc12 [Example 5],1 to 10
4,"C#Cc1cc(=O)n(-c2ccccc2)c2nc(Nc3ccc(OCCN(C)C)cc3)ncc12 [Example 13, 2-({4-[2-(Dimethylamino)ethoxy]phenyl}amino)-5-ethynyl-8-phenylpyrido[2,3-d]pyrimidin-7-one]",< 1
5,"C#Cc1cc(=O)n(-c2ccccc2)c2nc(Nc3ccc(N4CCOCC4)cc3OC)ncc12 [Example 35, 5-Ethynyl-2-((2-methoxy-4-morpholinophenyl)amino)-8-phenylpyrido[2,3-d]pyrimidin-7(8H)-one]",< 1
6,"C#Cc1cc(=O)n(-c2ccccc2)c2nc(Nc3ccccc3CO)ncc12 [Example 41, 5-Ethynyl-2-{[2-(hydroxymethyl)phenyl]amino}-8-phenylpyrido[2,3-d]pyrimidin-7-one]",> 10
7,"C#Cc1cc(=O)n(C)c2nc(Nc3ccc(N(C)CCN(C)C)cc3OC)ncc12 [Example 42, 2-[(4-{[2-(Dimethylamino)ethyl](methyl)amino}-2-methoxyphenyl)amino]-5-ethynyl-8-methylpyrido[2,3-d]pyrimidin-7-one]",1 to 10
8,"C#Cc1cc(=O)n(C)c2nc(Nc3ccccc3OC)ncc12 [Example 48, 5-Ethynyl-2-[(2-methoxyphenyl)amino]-8-methylpyrido[2,3-d]pyrimidin-7-one]",> 10
9,"C#Cc1cc(=O)n(-c2cccc(NC(C)=O)c2)c2nc(Nc3ccccc3OC)ncc12 [Example 56, N-(3-(5-Ethynyl-2-((2-methoxyphenyl)amino)-7-oxopyrido[2,3-d]pyrimidin-8(7H)-yl)phenyl)acetamide]",> 10
10,"C#Cc1cc(=O)n(-c2cccc(NS(C)(=O)=O)c2)c2nc(Nc3ccccc3OC)ncc12 [Example 57, N-(3-(5-Ethynyl-2-((2-methoxyphenyl)amino)-7-oxopyrido[2,3-d]pyrimidin-8(7H)-yl)phenyl)methanesulfonamide]",> 10
11,"C#Cc1cc(=O)n(-c2cccc(NS(=O)(=O)C3CC3)c2)c2nc(Nc3ccccc3OC)ncc12 [Example 58, N-(3-(5-Ethynyl-2-((2-methoxyphenyl)amino)-7-oxopyrido[2,3-d]pyrimidin-8(7H)-yl)phenyl)cyclopropanesulfonamide]",> 10
12,"C#Cc1cc(=O)n(C2CCCC2)c2nc(Nc3ccccc3OC)ncc12 [Example 74, 8-Cyclopentyl-5-ethynyl-2-((2-methoxyphenyl)amino)pyrido[2,3-d]pyrimidin-7(8H)-one]",> 10
